According to US10344025B2, “GLS1 inhibitors for treating disease” (Board of Regents, The University of Texas System, priority 2014, dated 2019):
Read-outs that look alike come from different tables or passages of the source.

Experiments:
[1] = molecular target: purified recombinant human GAC (GLS1) (Homo sapiens (Human), UniProt O94925); experiment: GLS1 Enzymatic Activity Assay (dual-coupled enzymatic assay, resorufin/Amplex UltraRed readout); type: biochemical;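 note: glutamate from GAC coupled via glutamate oxidase and peroxidase to resorufin, read as fluorescence (ex 530, em 590 nm) kinetically or at 20 min, four-parameter logistic IC50 fit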
purified recombinant human GAC (GLS1), sequence (O94925 other isoform, or with tags, fused parts or gaps): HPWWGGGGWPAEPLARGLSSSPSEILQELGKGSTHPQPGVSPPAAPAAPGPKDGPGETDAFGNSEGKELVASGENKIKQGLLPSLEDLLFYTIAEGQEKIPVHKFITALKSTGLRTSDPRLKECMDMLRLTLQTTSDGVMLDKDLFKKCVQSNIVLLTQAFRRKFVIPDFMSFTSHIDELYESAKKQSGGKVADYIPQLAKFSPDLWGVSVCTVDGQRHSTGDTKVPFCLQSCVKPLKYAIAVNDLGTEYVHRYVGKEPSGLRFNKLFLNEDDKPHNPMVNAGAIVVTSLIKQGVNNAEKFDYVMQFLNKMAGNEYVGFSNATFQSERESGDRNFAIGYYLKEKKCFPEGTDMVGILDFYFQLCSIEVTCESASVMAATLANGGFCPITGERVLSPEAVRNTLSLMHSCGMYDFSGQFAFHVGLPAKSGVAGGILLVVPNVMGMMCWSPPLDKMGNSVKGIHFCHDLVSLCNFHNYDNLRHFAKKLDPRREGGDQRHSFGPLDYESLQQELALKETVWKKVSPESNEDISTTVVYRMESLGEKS

A549 cells = experiment: Proliferation Assay (A549 viability, Cell Titer Fluor, 72 hours); type: cell-based
Summary of the method: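 A549 cells seeded at 1000 cells/well, rested 24 h, then exposed to compound in 0.5% DMSO for 72 h at 37 °C. Viability read by Cell Titer Fluor fluorescence; IC50 from four-parameter logistic fit.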

| Structure (SMILES) | IC50 [1] | EC50 (A549 cells; Homo sapiens, A549, 72 h) | EC50 (A549 cells) |
| --- | --- | --- | --- |
| O=C(Cc1cccnc1)Nc1ccc(CCCCn2cc(C(=O)NCc3cc(OC(F)(F)F)ccc3F)nn2)nn1 [Example 589, N-(2-fluoro-5-(trifluoromethoxy)benzyl)-1-(4-(6-(2-(pyridin-3-yl)acetamido)pyridazin-3-yl)butyl)-1H-1,2,3-triazole-4-carboxamide] | < 0.1 µM | < 0.1 µM |  |
| O=C(NCc1cccc(OC(F)(F)F)c1)c1cn(CCCCc2nnc(C(=O)NCCO)s2)nn1 [Example 45, N-(2-hydroxyethyl)-5-{4-[4-({[3-(trifluoromethoxy)phenyl]methyl}carbamoyl)-1H-1,2,3-triazol-1-yl]butyl}-1,3,4-thiadiazole-2-carboxamide] | 0.1 to 0.5 µM | 0.5 to 5 µM |  |
| CNC(=O)c1cn(C[C@H](F)CCc2ccc(NC(=O)Cc3cc(OC4CC(OCC(F)(F)F)C4)ccn3)nn2)nn1 (stereo partly drawn) [Example 269, (R)-1-(2-fluoro-4-(6-(2-(4-(3-(2,2,2-trifluoroethoxy)cyclobutoxy)pyridin-2-yl)acetamido)pyridazin-3-yl)butyl)-N-methyl-1H-1,2,3-triazole-4-carboxamide] | < 0.1 µM | < 0.1 µM |  |
| Cc1ccc(CNC(=O)c2cn(CC(F)CCc3nnc(C(=O)NCc4cc(OC(F)(F)F)ccc4F)s3)nn2)cn1 (stereo not shown) [Example 447, 5-[3-fluoro-4-(4-{[(6-methylpyridin-3-yl)methyl]carbamoyl}-1H-1,2,3-triazol-1-yl)butyl]-N-{[2-fluoro-5-(trifluoromethoxy)phenyl]methyl}-1,3,4-thiadiazole-2-carboxamide] | < 0.1 µM | < 0.1 µM |  |
| CC(=O)Nc1ccc(CCCCn2cc(C(=O)NCc3cc(C(F)(F)F)ccn3)nn2)nn1 [Example 175, 1-[4-(6-acetamidopyridazin-3-yl)butyl]-N-{[4-(trifluoromethyl)pyridin-2-yl]methyl}-1H-1,2,3-triazole-4-carboxamide] | < 0.1 µM | 0.1 to 0.5 µM |  |
| CNC(=O)c1cn(CCC(F)Cn2cc(C(=O)NCc3cnc4ccccc4c3)nn2)nn1 (stereo not shown) [Example 170, 1-(3-fluoro-4-{4-[(quinolin-3-ylmethyl)carbamoyl]-1H-1,2,3-triazol-1-yl}butyl)-N-methyl-1H-1,2,3-triazole-4-carboxamide] | 0.1 to 0.5 µM | 0.5 to 5 µM |  |
| CNC(=O)c1cn(CCCCc2ccc(NC(=O)CN3CCN(c4ccc(OC(F)(F)F)cc4)CC3)nn2)nn1 [Example 232, N-methyl-1-(4-(6-(2-(4-(4-(trifluoromethoxy)phenyl)piperazin-1-yl)acetamido)pyridazin-3-yl)butyl)-1H-1,2,3-triazole-4-carboxamide] | < 0.1 µM | < 0.1 µM |  |
| Cc1ccc(CNC(=O)c2cn(CCCCn3cc(NC(=O)CC4CCCCC4)nn3)nn2)cn1 [Example 318, 1-{4-[4-(2-cyclohexylacetamido)-1H-1,2,3-triazol-1-yl]butyl}-N-[(6-methylpyridin-3-yl)methyl]-1H-1,2,3-triazole-4-carboxamide] | < 0.1 µM | < 0.1 µM |  |
| O=C(Cc1cc(OC(F)(F)F)ccc1F)Nc1cn(CCCCn2cc(C(=O)NCc3cc(Cl)ccc3F)nn2)nn1 [Example 384, N-[(5-chloro-2-fluorophenyl)methyl]-1-[4-(4-{2-[2-fluoro-5-(trifluoromethoxy)phenyl]acetamido}-1H-1,2,3-triazol-1-yl)butyl]-1H-1,2,3-triazole-4-carboxamide] | < 0.1 µM | < 0.1 µM |  |
| O=C(Cc1cc(OC(F)(F)F)ccc1F)Nc1ccc(CCCCn2cc(C(=O)NC3COC3)nn2)nn1 [Example 581, 1-(4-(6-(2-(2-fluoro-5-(trifluoromethoxy)phenyl)acetamido)pyridazin-3-yl)butyl)-N-(oxetan-3-yl)-1H-1,2,3-triazole-4-carboxamide] | < 0.1 µM | 0.1 to 0.5 µM |  |
| Cc1ccc(CNC(=O)c2cn(CCCCn3cc(NC(=O)CC4CCCC4)nn3)nn2)cn1 [Example 317, 1-{4-[4-(2-cyclopentylacetamido)-1H-1,2,3-triazol-1-yl]butyl}-N-[(6-methylpyridin-3-yl)methyl]-1H-1,2,3-triazole-4-carboxamide] | 0.1 to 0.5 µM | 0.1 to 0.5 µM |  |
| O=C(Cc1cccc(OC(F)(F)F)c1)Nc1nnc(CCC(F)Cn2cc(C(=O)NCc3ccccn3)nn2)s1 (stereo not shown) [Example 533, 1-[2-fluoro-4-(5-{2-[3-(trifluoromethoxy)phenyl]acetamido}-1,3,4-thiadiazol-2-yl)butyl]-N-(pyridin-2-ylmethyl)-1H-1,2,3-triazole-4-carboxamide] | < 0.1 µM | < 0.1 µM |  |
| O=C(NCc1cccc(OC(F)(F)F)c1)c1cn(CCCCn2cc(C(=O)NCC3CC4CCC3O4)nn2)nn1 (stereo not shown) [Example 115, N-{7-oxabicyclo[2.2.1]heptan-2-ylmethyl}-1-{4-[4-({[3-(trifluoromethoxy)phenyl]methyl}carbamoyl)-1H-1,2,3-triazol-1-yl]butyl}-1H-1,2,3-triazole-4-carboxamide] | 0.5 to 5 µM |  | 0.5 to 5 µM |
| O=C(NCc1cccc(C(F)(F)F)n1)c1cn(CCC(F)Cn2cc(C(=O)NCc3cc(OC(F)(F)F)ccc3F)nn2)nn1 (stereo not shown) [Example 422, 1-{2-fluoro-4-[4-({[6-(trifluoromethyl)pyridin-2-yl]methyl}carbamoyl)-1H-1,2,3-triazol-1-yl]butyl}-N-{[-fluoro-5-(trifluoromethoxy)phenyl]methyl}-1H-1,2,3-triazole-4-carboxamide] | < 0.1 µM | < 0.1 µM |  |
| CNC(=O)c1cn(CCC(F)Cn2cc(C(=O)NCc3cccc(OC(F)(F)F)c3)nn2)nn1 (stereo not shown) [Example 162, 1-{3-fluoro-4-[4-({[3-(trifluoromethoxy)phenyl]methyl}carbamoyl)-1H-1,2,3-triazol-1-yl]butyl}-N-methyl-1H-1,2,3-triazole-4-carboxamide] | 0.1 to 0.5 µM | 0.1 to 0.5 µM |  |
| CCNC(=O)c1cn(CC(F)CCc2nnc(NC(=O)Cc3cccc(OC(F)(F)F)c3)s2)nn1 (stereo not shown) [Example 531, N-ethyl-1-[2-fluoro-4-(5-{2-[3-(trifluoromethoxy)phenyl]acetamido}-1,3,4-thiadiazol-2-yl)butyl]-1H-1,2,3-triazole-4-carboxamide] | < 0.1 µM | 0.1 to 0.5 µM |  |
| O=C(NCc1cc(C(F)(F)F)ccn1)c1cn(CCC(F)Cn2cc(C(=O)NCc3cccc(OC(F)(F)F)c3)nn2)nn1 (stereo not shown) [Example 439, 1-{3-fluoro-4-[4-({[3-(trifluoromethoxy)phenyl]methyl}carbamoyl)-1H-1,2,3-triazol-1-yl]butyl}-N-{[4-(trifluoromethyl)pyridin-2-yl]methyl}-1H-1,2,3-triazole-4-carboxamide] | < 0.1 µM | < 0.1 µM |  |
| O=C(NCc1ccccc1)c1cn(CCCCn2cc(C(=O)NCc3cc(C(F)(F)F)ccn3)nn2)nn1 [Example 96, 1-{4-[4-(benzylcarbamoyl)-1H-1,2,3-triazol-1-yl]butyl}-N-{[4-(trifluoromethyl)pyridin-2-yl]methyl}-1H-1,2,3-triazole-4-carboxamide] | 0.1 to 0.5 µM | 0.1 to 0.5 µM |  |
| O=C(NCc1cccc(OC(F)(F)F)c1)c1cn(CCCCn2cc(C(=O)NCC3CCOCC3)nn2)nn1 [Example 94, N-(oxan-4-ylmethyl)-1-{4-[4-({[3-(trifluoromethoxy)phenyl]methyl}carbamoyl)-1H-1,2,3-triazol-1-yl]butyl}-1H-1,2,3-triazole-4-carboxamide] | 0.1 to 0.5 µM | 0.1 to 0.5 µM |  |
| O=C(NCc1cc(C(F)(F)F)ccn1)c1cn(CCCCc2ccc(NC(=O)C3CC3)nn2)nn1 [Example 177, 1-[4-(6-cyclopropaneamidopyridazin-3-yl)butyl]-N-{[4-(trifluoromethyl)pyridin-2-yl]methyl}-1H-1,2,3-triazole-4-carboxamide] | < 0.1 µM | 0.1 to 0.5 µM |  |
| O=C(NCc1cccc(OC(F)(F)F)c1)c1cn(CCCCc2nnc(C(=O)NCc3ccc(C(F)(F)F)nc3)s2)nn1 [Example 78, 5-{4-[4-({[3-(trifluoromethoxy)phenyl]methyl}carbamoyl)-1H-1,2,3-triazol-1-yl]butyl}-N-{[6-(trifluoromethyl)pyridin-3-yl]methyl}-1,3,4-thiadiazole-2-carboxamide] | < 0.1 µM | < 0.1 µM |  |
| CNC(=O)c1cn(CCC(F)Cn2cc(C(=O)NCc3cncc(C4CC4)c3)nn2)nn1 (stereo not shown) [Example 164, 1-[4-(4-{[(5-cyclopropylpyridin-3-yl)methyl]carbamoyl}-1H-1,2,3-triazol-1-yl)-3-fluorobutyl]-N-methyl-1H-1,2,3-triazole-4-carboxamide] | < 0.1 µM | 0.1 to 0.5 µM |  |
| O=C(Cc1cccc(OC(F)(F)F)c1)Nc1nnc(CCCCn2cc(C(=O)NCc3ccccc3)nn2)s1 [Example 16, N-benzyl-[4-(5-{2-[3-(trifluoromethoxy)phenyl]acetamido}-1,3,4-thiadiazol-2-yl)butyl]-1H-1,2,3-triazole-4-carboxamide] | < 0.1 µM | < 0.1 µM |  |
| O=C(NCCC(F)(F)F)c1cn(CC(F)CCc2nnc(C(=O)NCc3cc(C(F)(F)F)ccn3)s2)nn1 (stereo not shown) [Example 510, 5-(3-fluoro-4-{4-[(3,3,3-trifluoropropyl)carbamoyl]-1H-1,2,3-triazol-1-yl}butyl)-N-{[4-(trifluoromethyl)pyridin-2-yl]methyl}-1,3,4-thiadiazole-2-carboxamide] | 0.1 to 0.5 µM | 0.5 to 5 µM |  |
| O=C(Cc1cc(OC(F)(F)F)ccc1F)Nc1cn(CC(F)CCn2cc(C(=O)NCc3cc(OC(F)(F)F)ccc3F)nn2)nn1 (stereo not shown) [Example 377, 1[3-fluoro-4-(4-{2-[2-fluoro-5-(trifluoromethoxy)phenyl]acetamido}-1H-1,2,3-triazol-1-yl)butyl]-N-{[2-fluoro-5-(trifluoromethoxy)phenyl]methyl}-1H-1,2,3-triazole-4-carboxamide] | < 0.1 µM | < 0.1 µM |  |
| CNC(=O)c1cn(CC(F)CCc2nnc(NC(=O)Cc3ccccn3)s2)nn1 (stereo not shown) [Example 519, 1-(2-fluoro-4-{5-[2-(pyridin-2-yl)acetamido]-1,3,4-thiadiazol-2-yl}butyl)-N-methyl-1H-1,2,3-triazole-4-carboxamide] | 0.1 to 0.5 µM | 0.5 to 5 µM |  |
